# Laboratory results reported in ChEMBL document CHEMBL3885881, “DrugMatrix”.
# Species: Rattus norvegicus
# Experiment: DrugMatrix - Regimen: Daily Repeat
# Format: toxicity, organism-based, Sprague-Dawley
# Parameters: regimen Daily Repeat, gender Male, age 6-8 weeks
# Conditions: in vivo, po, route oral GAVAGE, […]; for ABSOLUTE BASOPHIL / ABSOLUTE EOSINOPHIL / ABSOLUTE LYMPHOCYTE / ABSOLUTE MONOCYTE / ABSOLUTE SEGMENTED NEUTROPHIL / BASOPHIL / EOSINOPHIL / ERYTHROCYTE COUNT / HEMATOCRIT / HEMOGLOBIN / LEUKOCYTE COUNT / LYMPHOCYTE / MEAN CORPUSCULAR HEMOGLOBIN / MEAN CORPUSCULAR HEMOGLOBIN CONCENTRATION / MEAN CORPUSCULAR VOLUME / MONOCYTE / NEUTROPHIL / NUCLEATED RED BLOOD CELLS / PLATELET COUNT: tissue Blood; for ALANINE AMINOTRANSFERASE / ALBUMIN / ALKALINE PHOSPHATASE / ASPARTATE AMINOTRANSFERASE / BLOOD UREA NITROGEN / CARBON DIOXIDE / CHLORIDE / CHOLESTEROL / CREATINE PHOSPHOKINASE / CREATININE / GLUCOSE / LACTATE DEHYDROGENASE / LIPASE / PHOSPHORUS / POTASSIUM / SODIUM / TOTAL BILIRUBIN / TOTAL PROTEIN / URIC ACID: tissue Plasma
# [1] = 0 mg/kg, 72 h, dose level Control, time 3 day
# [2] = 0 mg/kg, 120 h, dose level Control, time 5 day
# [3] = 30 mg/kg, 72 h, dose level Low, time 3 day
compound,measurement,setting,value
CCC(C)n1ncn(-c2ccc(N3CCN(c4ccc(OCC5COC(Cn6cncn6)(c6ccc(Cl)cc6Cl)O5)cc4)CC3)cc2)c1=O (centres undefined) [ITRACONAZOLE],ABSOLUTE BASOPHIL,[1],0 CELLS/uL
same,ABSOLUTE EOSINOPHIL,[1],104.17 CELLS/uL
same,ABSOLUTE LYMPHOCYTE,[1],14547 CELLS/uL
same,ABSOLUTE MONOCYTE,[1],292 CELLS/uL
same,ABSOLUTE SEGMENTED NEUTROPHIL,[1],1640.17 CELLS/uL
same,BASOPHIL,[1],0%
same,EOSINOPHIL,[1],0.67%
same,ERYTHROCYTE COUNT,[1],5.35 x10E6/uL
same,HEMATOCRIT,[1],33.67%
same,HEMOGLOBIN,[1],13.38 G/DL
same,LEUKOCYTE COUNT,[1],16.58 x10E3/uL
same,LYMPHOCYTE,[1],87.5%
same,MEAN CORPUSCULAR HEMOGLOBIN,[1],25.05 pg
same,MEAN CORPUSCULAR HEMOGLOBIN CONCENTRATION,[1],39.78 G/DL
same,MEAN CORPUSCULAR VOLUME,[1],62.97 fL
same,MONOCYTE,[1],1.83%
same,NEUTROPHIL,[1],10%
same,NUCLEATED RED BLOOD CELLS,[1],0 /100WBC
same,PLATELET COUNT,[1],1274.5 x10E3/uL
same,ALANINE AMINOTRANSFERASE,[1],76.83 u/L
same,ALBUMIN,[1],3.97 G/DL
same,ALKALINE PHOSPHATASE,[1],347 u/L
same,ASPARTATE AMINOTRANSFERASE,[1],97.17 u/L
same,BLOOD UREA NITROGEN,[1],14.33 mg/dL
same,CARBON DIOXIDE,[1],25.5 mmol/L
same,CHLORIDE,[1],100.33 MEQ/L
same,CHOLESTEROL,[1],68.67 mg/dL
same,CREATINE PHOSPHOKINASE,[1],659.17 u/L
same,CREATININE,[1],0.32 mg/dL
same,GLUCOSE,[1],160.67 mg/dL
same,LACTATE DEHYDROGENASE,[1],271.5 u/L
same,LIPASE,[1],11.67 u/L
same,PHOSPHORUS,[1],10.65 mg/dL
same,POTASSIUM,[1],5.95 MEQ/L
same,SODIUM,[1],139.65 MEQ/L
same,TOTAL BILIRUBIN,[1],0.2 mg/dL
same,TOTAL PROTEIN,[1],5.72 G/DL
same,URIC ACID,[1],1.37 mg/dL
same,ABSOLUTE BASOPHIL,[2],0 CELLS/uL
same,ABSOLUTE EOSINOPHIL,[2],331.5 CELLS/uL
same,ABSOLUTE LYMPHOCYTE,[2],15021.67 CELLS/uL
same,ABSOLUTE MONOCYTE,[2],376.5 CELLS/uL
same,ABSOLUTE SEGMENTED NEUTROPHIL,[2],3070.33 CELLS/uL
same,BASOPHIL,[2],0%
same,EOSINOPHIL,[2],1.83%
same,ERYTHROCYTE COUNT,[2],5.24 x10E6/uL
same,HEMATOCRIT,[2],33.22%
same,HEMOGLOBIN,[2],13.2 G/DL
same,LEUKOCYTE COUNT,[2],18.8 x10E3/uL
same,LYMPHOCYTE,[2],79.67%
same,MEAN CORPUSCULAR HEMOGLOBIN,[2],25.17 pg
same,MEAN CORPUSCULAR HEMOGLOBIN CONCENTRATION,[2],39.73 G/DL
same,MEAN CORPUSCULAR VOLUME,[2],63.38 fL
same,MONOCYTE,[2],2%
same,NEUTROPHIL,[2],16.5%
same,NUCLEATED RED BLOOD CELLS,[2],0 /100WBC
same,PLATELET COUNT,[2],1142.67 x10E3/uL
same,ALANINE AMINOTRANSFERASE,[2],52.5 u/L
same,ALBUMIN,[2],3.9 G/DL
same,ALKALINE PHOSPHATASE,[2],284.5 u/L
same,ASPARTATE AMINOTRANSFERASE,[2],81.33 u/L
same,BLOOD UREA NITROGEN,[2],16 mg/dL
same,CARBON DIOXIDE,[2],25.33 mmol/L
same,CHLORIDE,[2],99.5 MEQ/L
same,CHOLESTEROL,[2],74.83 mg/dL
same,CREATINE PHOSPHOKINASE,[2],448.33 u/L
same,CREATININE,[2],0.37 mg/dL
same,GLUCOSE,[2],164.17 mg/dL
same,LACTATE DEHYDROGENASE,[2],290.67 u/L
same,LIPASE,[2],6.83 u/L
same,PHOSPHORUS,[2],11.5 mg/dL
same,POTASSIUM,[2],6.28 MEQ/L
same,SODIUM,[2],139.5 MEQ/L
same,TOTAL BILIRUBIN,[2],0.13 mg/dL
same,TOTAL PROTEIN,[2],5.55 G/DL
same,URIC ACID,[2],1.12 mg/dL
same,ABSOLUTE BASOPHIL,[3],0 CELLS/uL
same,ABSOLUTE EOSINOPHIL,[3],60 CELLS/uL
same,ABSOLUTE LYMPHOCYTE,[3],9936.67 CELLS/uL
same,ABSOLUTE MONOCYTE,[3],160.67 CELLS/uL
same,ABSOLUTE SEGMENTED NEUTROPHIL,[3],876 CELLS/uL
same,BASOPHIL,[3],0%
same,EOSINOPHIL,[3],0.67%
same,ERYTHROCYTE COUNT,[3],6.06 x10E6/uL
same,HEMATOCRIT,[3],37.97%
same,HEMOGLOBIN,[3],14.57 G/DL
same,LEUKOCYTE COUNT,[3],11.03 x10E3/uL
same,LYMPHOCYTE,[3],89.67%
same,MEAN CORPUSCULAR HEMOGLOBIN,[3],24 pg
same,MEAN CORPUSCULAR HEMOGLOBIN CONCENTRATION,[3],38.4 G/DL
same,MEAN CORPUSCULAR VOLUME,[3],62.6 fL
same,MONOCYTE,[3],1.33%
same,NEUTROPHIL,[3],8.33%
same,NUCLEATED RED BLOOD CELLS,[3],0 /100WBC
same,PLATELET COUNT,[3],1209.33 x10E3/uL
same,ALANINE AMINOTRANSFERASE,[3],56 u/L
same,ALBUMIN,[3],4.23 G/DL
same,ALKALINE PHOSPHATASE,[3],522.33 u/L
same,ASPARTATE AMINOTRANSFERASE,[3],74.33 u/L
same,BLOOD UREA NITROGEN,[3],11 mg/dL
same,CARBON DIOXIDE,[3],22.67 mmol/L
same,CHLORIDE,[3],100.33 MEQ/L
same,CHOLESTEROL,[3],56 mg/dL
same,CREATINE PHOSPHOKINASE,[3],240 u/L
same,CREATININE,[3],0.11 mg/dL
same,GLUCOSE,[3],184.33 mg/dL
same,LACTATE DEHYDROGENASE,[3],106 u/L
same,LIPASE,[3],10 u/L
same,PHOSPHORUS,[3],12.87 mg/dL
same,POTASSIUM,[3],6.49 MEQ/L
same,SODIUM,[3],141.73 MEQ/L
same,TOTAL BILIRUBIN,[3],0.17 mg/dL
same,TOTAL PROTEIN,[3],6.4 G/DL
same,URIC ACID,[3],1.97 mg/dL
